# Key:
# Akt [1] = assay: Insulin-dependent phosphorylation of Akt in HepG2 cells (immunoblot); assay type: cell-based, human; settings: 100 nM insulin
# Experimental: Human hepG2 cells (ECACC) were cultivated in EMEM medium (Cambrex) with the addition of 10% fetal calf serum. 10^5 cells were seeded in 2 ml medium in 6 well plates and were cultivated at 37° C. in a moist atmosphere with 5% CO2 for 1 to 3 days, before being used for experiments.
# The expression of IGFBP1 (insulin-like growth factor binding protein) is controlled by insulin via the forkhead box transcription factors O1A (FoxO1A) and O3A (FoxO3A). Following insulin stimulation, the protein kinase B/Akt (PKB/Akt) is activated via phosphorylation, based upon the phosphoinositide-3-kinase (PI3K), reaches the nucleus where it phosphorylates the transcription factor O1A (FoxO1A), which leads to a decrease in the gene expression of IGFBP1, for example.
# For human HepG2 cells (ECACC), serum was removed from the medium for 90 minutes, the cells were incubated for another 60 minutes with 5 μM, 10 μM and 15 μM of the compound according to formula (9), 200 nM Wortmannin or DMSO (dimethylsulfoxide) at a corresponding concentration, after which the cells were stimulated for 10 minutes with 100 nM insulin. The cells were then lysed in lysate buffer (20 mM Tris-Cl, pH 7.5, 150 mM NaCl, 1 mM EDTA, 1 mM EGTA, 2.5 mM sodium pyrophosphate, 1 mM β-glycerophosphate, 1 mM sodium vanadate, 1% Triton X-100) and protease inhibitor mix HP (Serva).
# Standardized quantities of protein were separated out using SDS-PAGE, and were transferred to nitrocellulose membranes. For protein identification via immunoblotting, an antibody was used against the phosphorylated protein Akt, pAkt (Thr308) (cell signaling). Visualization was carried out using the Enhanced Chemiluminescence System (Millipore) using a VersaDoc 5000 CCD camera (BioRad), and the intensity of the bands was quantified using the QuantityOne software (BioRad).
# Akt [2] = assay: Insulin-stimulated phosphorylation of Akt in Drosophila S2 Schneider cells (Western blot); assay type: cell-based; settings: 10 μM compound 2 hours, 10 μg/ml human insulin 15 minutes
# Experimental: 10^6 Drosophila S2 cells (Schneider, 1972. J. Embryol. Exp. Morphol. 27, 353) were seeded in cell culture medium (PAN company) with 10% fetal calf serum and 1% streptomycin, penicillin (Gibco) in 35 mm cell culture plates (Nunc company) and cultivated for 2 days at 25° C. to 70-80% confluence. After 2 days, 0.5% (v/v) of the medium DMSO was added, and, based upon the experiment, 10 μM of the compound according to formula (9) was added for 2 hours before insulin stimulation. For an insulin stimulation, human insulin (Sigma) was used for 15 minutes at a rate of 10 μg/ml. Once stimulation was complete, the cells were washed with cold PBS, lysed in cold (4° C.) lysate buffer (50 mM Tris-HCl, pH 8.0, 150 mM NaCl, 1.0% Triton X-100, 0.1% SDS, 0.5% sodium deoxycholate, 50 mM NaF, 100 μM sodium orthovanadate, 1 mM phenylmethylsulfonyl fluoride and EDTA-free protease inhibitor (Roche), according to manufacturer's instructions, and used in the Western Blot analysis.
# In each case, 10 μg protein were isolated on a 12% SDS polyacrylamide gel and transferred to 0.22 μm porous nitrocellulose membranes (Amersham). […]
# Visualization was performed by means of the ECL Kit (Enhanced Chemiluminescence, Amersham) using the VersaDoc 5000 Imaging System (BioRad) and the QuantityOne software (BioRad).
smiles,measurement,setting,value
COc1nc(-c2ccc3c(c2)OCO3)n(-c2ccc(NC(=O)CSc3ccccc3)cc2)n1 [Compound (9)],reduction in the phosphorylation of Akt as compared with phosphorylation following insulin stimulation,"Akt [1]; HepG2 cells, 10 μM compound",50%
same,phosphorylation of Akt as % of the phosphorylation following insulin stimulation,"Akt [1]; HepG2 cells, 15 μM compound",approximately 25%
same,insulin-dependent phosphorylation of Akt,"Akt [1]; HepG2 cells, 5, 10, 15 μM compound, based upon concentration",inhibited
same,insulin-stimulated phosphorylation of the protein Akt,Akt [2],decreased by half

# From patent US20100048594A1, “USE OF CYTOHESIN INHIBITORS FOR CHEMICALLY INDUCING LONGEVITY” (RHEINISCHE FRIEDRICH-WILHELMS UNIVERSITAT, priority 2006, published 2010)
